# Experimental data taken from article PMC8333425, “Discovery of a dual Ras and ARF6 inhibitor from a GPCR endocytosis screen” (Nature Communications, 2021).
# “And” between values parts separate entries of the source, which are not always exact repeats. Equal values may be shown once.
# Biological target: K-Ras (Homo sapiens, UniProt P01116)
# Assay: Ras BRET sensor in cells overexpressing WT K-Ras and AT1R
# Assay type: cell-based
# Parameters: expressed in transfected cells; host or cells: HEK293SL
# Source text: Because Tyr32 and Tyr40, located on the switch I domain of Ras, are critical for stabilizing Rasarfin binding through interactions with both the chlorine and isopropyl moiety (Fig. 7a, c), we reasoned that substituting them for Ala residues would negatively impact Rasarfin’s inhibitory action on Ras. […] Because we wanted to assess the inhibitory action of Rasarfin over different Ras subtypes, we mutated the two tyrosine residues to an alanine in K-Ras (Y32A, Y40A, and Y32A/Y40A mutants) within the same Rasarfin binding site found in H-Ras (Lys^5-Thr^74). This domain and residues are perfectly conserved among the Ras family members[44],[45]. WT K-Ras and K-Ras mutants were overexpressed along with AT1R in cells and AngII-mediated activation of Ras was assessed using the Ras BRET sensor (Supplementary Fig. 11a).
# HEK293SL cells were seeded at a density of 7.5 × 10^5 cells per 100-mm dish and 24 h later, transiently transfected as such. For receptor internalization experiments, cells were transfected with 0.12 μg AT1R-RlucII, B2R-RlucII, or β2AR-RlucII and 0.48 μg of either rGFP-CAAX (to assess removal from the PM) or rGFP-FYVE (to assess accumulation in the endosomes). For β-arrestin recruitment assays, cells were transfected with 0.48 μg of receptor-YFP along with 0.12 μg of β-arrestin-RlucII. […] For kinetics of β-arrestin recruitment or β-arrestin binding to receptor and AP-2 experiments, cells were serum starved for 30 min, pretreated with 21 (50 µM) or Barbadin (100 µM) for 30 min, stimulated with 100 nM AngII or 1 µM BK and BRET signals were monitored at indicated times using a Victor X Light plate reader (PerkinElmer). […] The BRET ratio was determined by calculating the ratio of the light emitted by YFP over the light emitted by the RlucII. […] For the kinetics of GTPase and PI3K/Akt activation, cells were serum starved, pretreated with 21 (50 µM) or Wortmannin (200 nM) for 30 min, stimulated with ligand (100 nM AngII or 100 ng/ml EGF) and BRET signals were monitored at indicated times. […]
# K-Ras, sequence (P01116 1-188 isoform P01116-2): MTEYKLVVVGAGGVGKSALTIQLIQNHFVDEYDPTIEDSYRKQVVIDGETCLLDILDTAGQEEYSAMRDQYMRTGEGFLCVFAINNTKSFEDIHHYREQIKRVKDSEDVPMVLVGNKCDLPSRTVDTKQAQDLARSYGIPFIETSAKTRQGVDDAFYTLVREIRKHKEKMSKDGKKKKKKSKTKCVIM
smiles,measurement,setting,value
CC(C)C(=O)N1CCN(c2ccc(NC(=O)c3cc4ccccc4o3)cc2Cl)CC1 [Compound 21],AngII-mediated activation of WT K-Ras (Ras BRET sensor),50 μM,only WT was significantly inhibited by Rasarfin
same,AngII-promoted BRET,"Rasarfin 50 μM, K-Ras WT",0.0405 and 0.05833 and 0.04947 and 0.058
same,"AngII-promoted BRET, Mean Diff. DMSO - Rasarfin","Rasarfin 50 μM, K-Ras WT, Bonferroni's multiple comparisons test",0.04859
